Data: patent US20230320999A1, “NON-THERAPEUTIC METHODS FOR ALLEVIATING OR REDUCING STRESS SYMPTOMS OF RUMINANTS” (DSM IP Assets B.V., priority 2018, published 2023)

System: rumen metabolites (Dimethylsulfone)
Experiment: Rumen metabolites in rumen fluid of fistulated steers, quantified by NMR after 21 days of treatment
Assay type: in vivo, Brahman steers (Bos indicus)
Conditions: for Dimethylsulfone in rumen fluid: rumen fluid 3 h post feeding, days 20 and 21, 4 steers; for Change of the methyl donor (dimethylsulfone) in rumen fluid versus control period, in words: 21 days of treatment, Brahman steers
From the text: Eight fistulated Brahman steers (Bos indicus) were randomly allocated to two groups (4 animals per group) and received a forage ad libitum diet (Rhode grass hay (Chloris […]), chemical composition: DM, 917 g/kg fresh matter; in g/kg of DM: OM, 806; CP, 169; NDF, 661; ADF, 359; ADL, 46; ash, 116 and GE 17.38 MJ/kg). […] Animals were adapted to the diet over a 21 d period. After that initial period, experimental animals were placed into individual pens in an animal house for the measurement of intakes (10 d) and were treated with cyclodextrin (2 g/100 kg LW) and molasses (60 mL/d). On the last 2 days animals were placed into open-circuit respiration chambers for collection of rumen samples. […] On days 20 and 21 of treatment both groups were placed in open-circuit respiration chambers for rumen fluid collection. Rumen fluid samples (approx. 60 mL per animal) were collected using a probe with 2 layers of cheesecloth through the cannula of the animal at 3 h post feeding, during confinement in respiration chambers to determine rumen metabolites.

| Structure (SMILES) | Dimethylsulfone in rumen fluid (1.6 g chloroform-CD/100 kg LW for 21 days, control period value 21) [μmol/L rumen fluid] | Change of the methyl donor (dimethylsulfone) in rumen fluid versus control period, in words | Dimethylsulfone in rumen fluid (2.5 g propanediol mononitrate/animal/day for 21 days, control period value 20) [μmol/L rumen fluid] |
| --- | --- | --- | --- |
| ClC(Cl)Cl [Chloroform, chloroform] | 80 | statistically significant increase |  |
| O=[N+]([O-])OCCCO [PDMN, 1,3-propanediol mononitrate] |  | statistically significant increase | 113 |
